Laboratory results taken from patent US20240109905A1, “4-ALKOXY-6-OXO-PYRIDAZINE DERIVATIVES MODULATING NLRP3” (JANSSEN PHARMACEUTICA NV, priority 2021, published 2024).
Like-named read-outs stand apart in the source and are kept apart here.

Columns and labels:
[1] = system: TNF; assay: PBMC assay: TNF cytokine level after LPS stimulation; format: cell-based; conditions: human PBMCs, 30 min compound, 100 ng/ml LPS for 6 hrs, MSD
Experimental: (§1) Peripheral venous blood was collected from healthy individuals and human peripheral blood mononuclear cells (PBMCs) were isolated from blood by Ficoll-Histopaque (Sigma-Aldrich, A0561) density gradient centrifugation. After isolation, PBMCs were stored in liquid nitrogen for later use. Upon thawing, PBMC cell viability was determined in growth medium (RPMI media supplemented with 10% fetal bovine serum, 1% Pen-Strep and 1% L-glutamine). Compounds were spotted in a 1:3 serial dilution in DMSO and diluted to the final concentration in 30 μl medium in 96 well plates (Falcon, 353072). PBMCs were added at a density of 7.5×10^4 cells per well and incubated for 30 min in a 5% CO2 incubator at 37° C. LPS stimulation was performed by addition of 100 ng/ml LPS (final concentration, Invivogen, tlrl-smlps) for 6 hrs followed by collection of cellular supernatant and the analysis of IL-1β (μM) and TNF cytokines levels (μM) via MSD technology according to manufacturers' guidelines (MSD, K151A0H).
(§2) IC50 and AC50 values (for […]) and EC50 and AC50 values (TNF) were obtained on compounds of the invention/examples, and the AC50 values are depicted in the following table: […]

[2] = system: IL-1β; assay: PBMC assay: IL-1β release after LPS stimulation; format: cell-based; conditions: human PBMCs, 30 min compound, 100 ng/ml LPS for 6 hrs, MSD, read-out: IL1β AC50
Experimental: The activity of a compound according to the present invention can be assessed by in vitro methods.
as §1, §2

Row | SMILES | AC50 ([1]; PBMC) | AC50 ([2]; PBMC) | AC50 [1] | AC50 [2]
1 | Cc1c(OCC(C)C)c(C(C)C)nn(CC(=O)Nc2ccncc2)c1=O [Compound 73] | > 20 µM | 0.33 µM |  | 
2 | Cc1cnc(C23CC(NC(=O)Cn4nc(C(C)C)c(OCC(C)C)cc4=O)(C2)C3)o1 [Compound 139, 2-(4-isobutoxy-3-isopropyl-6-oxopyridazin-1(6H)-yl)-N-(3-(5-methyloxazol-2-yl)bicyclo[1.1.1]pentan-1-yl)acetamide] | > 20 µM | 10.8 µM |  | 
3 | CCCOc1c(C(C)C)nn(CC(=O)Nc2ccc3nncn3c2)c(=O)c1Cl [Compound 84] | 19.4 µM | 0.63 µM |  | 
4 | CC(C)COc1cc(=O)n(CC(=O)Nc2nc3ccc(C(F)(F)F)cn3n2)nc1C(C)C [Compound 124] | > 20 µM | 3.4 µM |  | 
5 | CC(C)COc1cc(=O)n(CC(=O)Nc2nc3cnccn3n2)nc1C(C)C [Compound 43] | > 20 µM | 0.07 µM |  | 
6 | CC(C)c1nn(CC(=O)Nc2ccc3nncn3n2)c(=O)cc1Oc1ccccc1 [Compound 143] | > 20 µM | 18 µM |  | 
7 | CC(C)COc1cc(=O)n(CCO)nc1N(C)C [Compound 158] | > 20 µM | > 20 µM |  | 
8 | CC(C)c1nn(CC(=O)Nc2ccc3nncn3c2)c(=O)cc1OC1CCC1 [Compound 14F] | > 10 µM | 0.68 µM |  | 
9 | CCCS(=O)(=O)C12CC(NC(=O)Cn3nc(C(C)C)c(OCC(C)C)cc3=O)(C1)C2 [Compound 78, 2-(4-isobutoxy-3-isopropyl-6-oxopyridazin-1(6H)-yl)-N-(3-(propylsulfonyl)bicyclo[1.1.1]pentan-1-yl)acetamide] | > 20 µM | 0.42 µM |  | 
10 | CC(C)c1nn(CC(=O)Nc2ccc3nncn3c2)c(=O)cc1OC(C)C(F)(F)F (stereo not drawn) [Compound 20F] | > 10 µM | 1.29 µM |  | 
11 | CC(C)c1nn(CC(=O)Nc2ccc3nncn3c2)c(=O)c(Cl)c1OCC1CC1 [Compound 74] | > 20 µM | 0.36 µM |  | 
12 | O=C(Cn1nc(OCC(F)(F)F)c(OCC(F)(F)F)cc1=O)Nc1ccc2nncn2n1 [Compound 142] | > 20 µM | 15.7 µM |  | 
13 | Cc1cc(NC(=O)Cn2nc(C(C)C)c(OCC(C)C)cc2=O)ccn1 [Compound 65] | > 20 µM | 0.21 µM |  | 
14 | CC(C)COc1cc(=O)n(CC(=O)Nc2cn3cc(Br)ncc3n2)nc1C(C)C [Compound 126] | > 20 µM | 3.56 µM |  | 
15 | CC(C)COc1cc(=O)n(CC(=O)Nc2cc3ccccn3n2)nc1C(C)C [Compound 113] | > 20 µM | 1.79 µM |  | 
16 | COc1ccc2nc(NC(=O)Cn3nc(C(C)C)c(OCC(C)C)cc3=O)nn2c1 [Compound 123] | > 20 µM | 2.91 µM |  | 
17 | COc1cc(=O)n(CC(=O)Nc2ccc3nncn3n2)nc1C(C)C [Compound 27C, N-([1,2,4]triazolo[4,3-b]pyridazin-6-yl)-2-(3-isopropyl-4-methoxy-6-oxopyridazin-1(6H)-yl)acetamide] | > 10 µM | 13.3 µM |  | 
18 | CC(C)COc1cc(=O)n(CC(=O)NC23CCC(NC(=O)OC(C)(C)C)(CC2)CC3)nc1C(C)C [Compound 153] | > 20 µM | > 20 µM |  | 
19 | CC(C)c1nn(CC(=O)Nc2ccc3nncn3c2)c(=O)cc1OC1CNC1 [Compound 161] | > 20 µM | > 20 µM |  | 
20 | CC(C)COc1cc(=O)n(CC(=O)NC23CC(C#N)(C2)C3)nc1C(C)C [Compound 66] | > 20 µM | 0.22 µM |  | 
21 | CC(C)COc1cc(=O)n(CC(=O)Nc2cn3ccncc3n2)nc1C(C)C [Compound 97] | 5.01 µM | 0.95 µM |  | 
22 | COc1c(C(C)C)nn(CC(=O)Nc2ccc3nncn3c2)c(=O)c1Br [Compound 29E] | > 10 µM | > 15 µM |  | 
23 | CC(C)COc1cc(=O)n(CC(=O)Nc2nc3cc(C(F)(F)F)ccn3n2)nc1C(C)C [Compound 87] | > 20 µM | 0.66 µM |  | 
24 | CC(C)COc1cc(=O)n(NC23CCC(O)(CC2)C3)nc1C(C)C [Compound 59] |  |  | > 20 µM | 0.16 µM
25 | CC(C)COc1cc(=O)n(CC(=O)NC23CC(CS(C)(=O)=O)(C2)C3)nc1C(C)C [Compound 112] | > 20 µM | 1.55 µM |  | 
26 | CC(C)Oc1cc(=O)n(CC(=O)Nc2ccc3nncn3c2)nc1C(C)C [Compound 18F] | > 10 µM | 0.66 µM |  | 
27 | CC(C)COc1cc(=O)n(CC(=O)Nc2nc3ccc(Br)cc3n2C)nc1C(C)C [Compound 135] | > 10 µM | > 10 µM |  | 

Row | SMILES | AC50 ([1]; PBMC) | AC50 ([2]; PBMC) | AC50 [1] | AC50 [2]
28 | CC(C)c1nn(CC(=O)Nc2ccc3nncn3n2)c(=O)c(Cl)c1OCCC(F)(F)F [Compound 50] | 1.62 µM | 0.09 µM |  | 
29 | CC(C)c1nn(CC(=O)Nc2ccc3nncn3c2)c(=O)cc1OC1COC1 [Compound 13F] | > 10 µM | > 15 µM |  | 
30 | CC(C)COc1cc(=O)n(CC(=O)N[C@H]2C[C@]3(CCN3C)C2)nc1C(C)C [Compound 89, 2-(4-isobutoxy-3-isopropyl-6-oxopyridazin-1(6H)-yl)-N-((4s,6r)-1-methyl-1-azaspiro[3.3]heptan-6-yl)acetamide] | > 20 µM | 0.67 µM |  | 
31 | Cc1cc(C(F)(F)F)n2nc(NC(=O)Cn3nc(C(C)C)c(OCC(C)C)cc3=O)nc2n1 [Compound 130, 2-(4-isobutoxy-3-isopropyl-6-oxopyridazin-1(6H)-yl)-N-(5-methyl-7-(trifluoromethyl)-[1,2,4]triazolo[1,5-a]pyrimidin-2-yl)acetamide] | > 20 µM | 8.73 µM |  | 
32 | CC(C)COc1cc(=O)n(CC(=O)NC23CCC(N)(CC2)CC3)nc1C(C)C [Compound 99] | > 20 µM | 0.97 µM |  | 
33 | O=C(Cn1nc(C2CC2)c(OCC23CC(CO2)C3)cc1=O)Nc1ccc2nncn2n1 [Compound 32E] | > 10 µM | 14.6 µM |  | 
34 | CC(C)c1nn(CC(=O)Nc2ccc3nncn3c2)c(=O)cc1OCC1CCC1 [Compound 7F] | > 10 µM | 0.21 µM |  | 
35 | CC(C)c1nn(CC(=O)Nc2ccc3nncn3n2)c(=O)cc1OCCC(F)(F)F [Compound 102] | > 20 µM | 1.06 µM |  | 
36 | CC(C)c1nn(CC(=O)Nc2ccc3nncn3c2)c(=O)cc1OC1CCOCC1 [Compound 26F] | > 10 µM | 13.6 µM |  | 
37 | CCOc1cc(=O)n(CC(=O)Nc2ccc3nncn3c2)nc1C1CC1 [Compound 33D] | > 10 µM | 1.25 µM |  | 
38 | CC(C)COc1c(C(C)C)nn(CC(=O)Nc2ccc3nncn3n2)c(=O)c1C(F)F [Compound 62] | 3.75 µM | 0.18 µM |  | 
39 | Cc1ccc2c(c1)nc(NC(=O)Cn1nc(C(C)C)c(OCC(C)C)cc1=O)n2C [Compound 133] | > 10 µM | > 10 µM |  | 
40 | CC(C)COc1cc(=O)n(CC(=O)NC23CC(O)(C2)C3)nc1C(C)C [Compound 82] | > 20 µM | 0.5 µM |  | 
41 | CN(C)c1nn(CCO)c(=O)cc1OCC1CC1 [Compound 157, 5-(cyclopropylmethoxy)-6-(dimethylamino)-2-(2-hydroxyethyl)pyridazin-3(2H)-one] | > 20 µM | > 20 µM |  | 
42 | CC(C)c1nn(CC(=O)Nc2ccc3nncn3c2)c(=O)cc1OCC(C)(C)C(F)(F)F [Compound 16F] | > 10 µM | 1.56 µM |  | 
43 | CC(C)COc1cc(=O)n(CC(=O)NC23CC(F)(C2)C3)nc1C(C)C [Compound 105] | > 20 µM | 1.21 µM |  | 
44 | CC(C)COc1cc(=O)n(CC(=O)Nc2nc3ccccc3n2C)nc1C(C)C [Compound 147] | > 20 µM | > 20 µM |  | 
45 | COc1cc(=O)n(CC(=O)Nc2ccc3nncn3c2)nc1C(C)C [Compound 162] | > 20 µM | > 20 µM |  | 
46 | Cc1c(OCC(C)C)c(C(C)C)nn(CC(=O)Nc2ccc3nccn3n2)c1=O [Compound 68] | > 20 µM | 0.24 µM |  | 
47 | CC(C)c1nn(CC(=O)Nc2ccc3nncn3c2)c(=O)cc1OCC1CNC1 [Compound 160] | > 20 µM | > 20 µM |  | 
48 | CC(C)COc1c(C(C)C)nn(CC(=O)Nc2ccc3nncn3c2)c(=O)c1C(C)O (stereo not drawn) [Compound 155] | > 20 µM | > 20 µM |  | 
49 | CC(C)c1nn(CC(=O)Nc2ccc3nncn3n2)c(=O)cc1OCC(C)(F)F [Compound 56] | > 20 µM | 0.13 µM |  | 
50 | CN(C)c1nn(CC(=O)Nc2ccc3nncn3n2)c(=O)cc1OCC(F)(F)F [Compound 95] | 18.2 µM | 0.79 µM |  | 
51 | CC(C)COc1c(C(C)C)nn(CC(=O)Nc2ccc3nncn3n2)c(=O)c1Cl [Compound 39] | 0.6 µM | 0.02 µM |  | 
52 | CC(C)COc1cc(=O)n(CC(=O)Nc2nc3ncccn3n2)nc1C(C)C [Compound 77] | > 20 µM | 0.4 µM |  | 
53 | CC(C)COc1c(C(C)C)nn(CC(=O)Nc2ccc3nncn3c2)c(=O)c1F [Compound 61] | > 20 µM | 0.16 µM |  | 
54 | Cc1noc(C23CC(NC(=O)Cn4nc(C(C)C)c(OCC(C)C)cc4=O)(C2)C3)n1 [Compound 90, 2-(4-isobutoxy-3-isopropyl-6-oxopyridazin-1(6H)-yl)-N-(3-(3-methyl-1,2,4-oxadiazol-5-yl)bicyclo[1.1.1]pentan-1-yl)acetamide] | > 20 µM | 0.68 µM |  | 
